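GI50 = concentration required for 50% inhibition of growth. Definition used: TGI = concentration required for complete inhibition of growth.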
Legend:
Test in all cases: inhibition of tumour cell growth, NCI panel, 384-well format
A498 renal = system: A498 renal
COLO 205 colon = system: COLO 205 colon
IGROV1 ovarian = system: IGROV1 ovarian
K-562 leukemia = system: K-562 leukemia
MDA-MB-435 melanoma = system: MDA-MB-435 melanoma
NCI-H322M lung = system: NCI-H322M lung
OVCAR-5 ovarian = system: OVCAR-5 ovarian
SK-MEL-5 melanoma = system: SK-MEL-5 melanoma
SR leukemia = system: SR leukemia
TK-10 renal = system: TK-10 renal
U251 glioblastoma = system: U251 glioblastoma
UACC-257 melanoma = system: UACC-257 melanoma
UACC-62 melanoma = system: UACC-62 melanoma

CC(=O)N1CCC(Nc2cc(C(=O)NC[C@H](O)CN3CCc4ccccc4C3)ncn2)CC1
GI50 (A498 renal): > 100 µM | TGI (A498 renal): > 100 µM | GI50 (COLO 205 colon): > 100 µM | TGI (COLO 205 colon): > 100 µM | GI50 (IGROV1 ovarian): > 100 µM | TGI (IGROV1 ovarian): > 100 µM | GI50 (K-562 leukemia): > 100 µM | TGI (K-562 leukemia): > 100 µM | GI50 (MDA-MB-435 melanoma): > 100 µM | TGI (MDA-MB-435 melanoma): > 100 µM | GI50 (NCI-H322M lung): > 100 µM | TGI (NCI-H322M lung): > 100 µM | GI50 (OVCAR-5 ovarian): > 100 µM | TGI (OVCAR-5 ovarian): > 100 µM | GI50 (SK-MEL-5 melanoma): > 100 µM | TGI (SK-MEL-5 melanoma): > 100 µM | GI50 (SR leukemia): 0.183 µM | TGI (SR leukemia): > 100 µM | GI50 (TK-10 renal): > 100 µM | TGI (TK-10 renal): > 100 µM | GI50 (U251 glioblastoma): > 100 µM | TGI (U251 glioblastoma): > 100 µM | GI50 (UACC-257 melanoma): > 100 µM | TGI (UACC-257 melanoma): > 100 µM | GI50 (UACC-62 melanoma): > 100 µM | TGI (UACC-62 melanoma): > 100 µM

Source: PubChem BioAssay (NCI)
